From PMC8035642, “A haustorial‐expressed lytic polysaccharide monooxygenase from the cucurbit powdery mildew pathogen Podosphaera xanthii contributes to the suppression of chitin‐triggered immunity” (Molecular Plant Pathology, 2021)

Target: T1, PHEC27213 (PxLPMO1) (Podosphaera xanthii, UniProt A0A8E4PV92)
T1 construct: gene SHLPMO1; mature protein, signal peptide removed (191 residues), C-terminal 6xHis tag kept, pET30b NdeI/XhoI, E. coli BL21-CodonPlus-RIL; start Met from NdeI site probably before His1
Experiment: MALDI-TOF-MS of reaction products
Format: biochemical
Conditions: 1 mM ascorbic acid as reductant, 0.1 M sodium phosphate pH 7.0, 37 °C overnight, 1 μM enzyme; no copper addition told

T1 sequence (A0A8E4PV92 entry or part of it): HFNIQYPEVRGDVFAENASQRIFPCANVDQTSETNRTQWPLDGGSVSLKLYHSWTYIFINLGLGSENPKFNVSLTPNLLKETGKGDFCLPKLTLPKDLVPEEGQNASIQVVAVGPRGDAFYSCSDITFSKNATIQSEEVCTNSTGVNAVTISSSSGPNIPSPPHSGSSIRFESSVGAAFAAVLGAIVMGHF

CC(=O)N[C@H]1[C@H](O[C@H]2[C@H](O)[C@@H](NC(C)=O)[C@H](O[C@H]3[C@H](O)[C@@H](NC(C)=O)[C@H](O[C@H]4[C@H](O)[C@@H](NC(C)=O)C(O)O[C@@H]4CO)O[C@@H]3CO)O[C@@H]2CO)O[C@H](CO)[C@@H](O[C@@H]2O[C@H](CO)[C@@H](O[C@@H]3O[C@H](CO)[C@@H](O[C@@H]4O[C@H](CO)[C@@H](O)[C@H](O)[C@H]4NC(C)=O)[C@H](O)[C@H]3NC(C)=O)[C@H](O)[C@H]2NC(C)=O)[C@@H]1O (stereo partly shown) [DP7, hepta-N-acetylchitoheptaose]
MALDI-TOF-MS of reaction products: PHEC27213 was able to release, predominantly, DP5 oligosaccharides
